Source: PubChem BioAssay (NCI)
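A five-concentration, 48-hour dose response in 96-well plates underlies each endpoint, interpolated linearly between surrounding concentrations. At the TGI there is no net growth.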

What was measured:
Test in all cases: NCI-60 cell line screen, 48 h
SR leukemia = test system: SR leukemia
SN12C renal = test system: SN12C renal
MOLT-4 leukemia = test system: MOLT-4 leukemia
SF-295 CNS = test system: SF-295 CNS
ACHN renal = test system: ACHN renal
DU-145 prostate = test system: DU-145 prostate
MDA-MB-231 breast = test system: MDA-MB-231 breast
UACC-257 melanoma = test system: UACC-257 melanoma
SK-MEL-5 melanoma = test system: SK-MEL-5 melanoma
NCI-H522 lung = test system: NCI-H522 lung
RXF 393 renal = test system: RXF 393 renal
MDA-MB-435 = test system: MDA-MB-435
TK-10 renal = test system: TK-10 renal
KM12 colon = test system: KM12 colon
HCT-116 colon = test system: HCT-116 colon
CAKI-1 renal = test system: CAKI-1 renal
LOX IMVI melanoma = test system: LOX IMVI melanoma
COLO 205 colon = test system: COLO 205 colon
T-47D breast = test system: T-47D breast
OVCAR-8 ovarian = test system: OVCAR-8 ovarian
A549 NSCLC = test system: A549 NSCLC
SK-MEL-2 melanoma = test system: SK-MEL-2 melanoma
SW-620 colon = test system: SW-620 colon
OVCAR-5 ovarian = test system: OVCAR-5 ovarian
HOP-62 NSCLC = test system: HOP-62 NSCLC
SNB-75 CNS = test system: SNB-75 CNS
IGROV1 ovarian = test system: IGROV1 ovarian
U251 CNS = test system: U251 CNS
NCI/ADR-RES ovarian = test system: NCI/ADR-RES ovarian
SF-539 CNS = test system: SF-539 CNS
786-0 renal = test system: 786-0 renal
M14 melanoma = test system: M14 melanoma
SNB-19 CNS = test system: SNB-19 CNS
OVCAR-3 ovarian = test system: OVCAR-3 ovarian
MALME-3M melanoma = test system: MALME-3M melanoma
HCT-15 colon = test system: HCT-15 colon
MDA-N = test system: MDA-N
NCI-H460 lung = test system: NCI-H460 lung
SF-268 CNS = test system: SF-268 CNS
HCC-2998 colon = test system: HCC-2998 colon
K-562 leukemia = test system: K-562 leukemia
NCI-H23 lung = test system: NCI-H23 lung
RPMI-8226 leukemia = test system: RPMI-8226 leukemia
HL-60(TB) leukemia = test system: HL-60(TB) leukemia
OVCAR-4 ovarian = test system: OVCAR-4 ovarian
NCI-H226 lung = test system: NCI-H226 lung
MCF7 breast = test system: MCF7 breast
SK-MEL-28 melanoma = test system: SK-MEL-28 melanoma
HOP-92 NSCLC = test system: HOP-92 NSCLC
SK-OV-3 ovarian = test system: SK-OV-3 ovarian
PC-3 prostate = test system: PC-3 prostate
HT29 colon = test system: HT29 colon
CCRF-CEM leukemia = test system: CCRF-CEM leukemia
BT-549 breast = test system: BT-549 breast
UACC-62 melanoma = test system: UACC-62 melanoma
A498 renal = test system: A498 renal
UO-31 renal = test system: UO-31 renal
EKVX NSCLC = test system: EKVX NSCLC

COc1c(O)cc2c(c1O)C1O[C@H](CO)C(O)[C@H](O)[C@H]1OC2=O (stereo partly specified)
TGI (SR leukemia): > 100 µM | TGI (SN12C renal): > 100 µM | TGI (MOLT-4 leukemia): > 100 µM | TGI (SF-295 CNS): > 100 µM | TGI (ACHN renal): > 100 µM | TGI (DU-145 prostate): > 100 µM | TGI (MDA-MB-231 breast): > 100 µM | TGI (UACC-257 melanoma): > 100 µM | TGI (SK-MEL-5 melanoma): > 100 µM | TGI (NCI-H522 lung): > 100 µM | TGI (RXF 393 renal): > 100 µM | TGI (MDA-MB-435): > 100 µM | TGI (TK-10 renal): > 100 µM | TGI (KM12 colon): > 100 µM | TGI (HCT-116 colon): > 100 µM | TGI (CAKI-1 renal): > 100 µM | TGI (LOX IMVI melanoma): > 100 µM | TGI (COLO 205 colon): > 100 µM | TGI (T-47D breast): > 100 µM | TGI (OVCAR-8 ovarian): > 100 µM | TGI (A549 NSCLC): > 100 µM | TGI (SK-MEL-2 melanoma): > 100 µM | TGI (SW-620 colon): > 100 µM | TGI (OVCAR-5 ovarian): > 100 µM | TGI (HOP-62 NSCLC): > 100 µM | TGI (SNB-75 CNS): > 100 µM | TGI (IGROV1 ovarian): > 100 µM | TGI (U251 CNS): > 100 µM | TGI (NCI/ADR-RES ovarian): > 100 µM | TGI (SF-539 CNS): > 100 µM | TGI (786-0 renal): > 100 µM | TGI (M14 melanoma): > 100 µM | TGI (SNB-19 CNS): > 100 µM | TGI (OVCAR-3 ovarian): > 100 µM | TGI (MALME-3M melanoma): > 100 µM | TGI (HCT-15 colon): > 100 µM | TGI (MDA-N): > 100 µM | TGI (NCI-H460 lung): > 100 µM | TGI (SF-268 CNS): > 100 µM | TGI (HCC-2998 colon): > 100 µM | TGI (K-562 leukemia): > 100 µM | TGI (NCI-H23 lung): > 100 µM | TGI (RPMI-8226 leukemia): > 100 µM | TGI (HL-60(TB) leukemia): > 100 µM | TGI (OVCAR-4 ovarian): > 100 µM | TGI (NCI-H226 lung): > 100 µM | TGI (MCF7 breast): > 100 µM | TGI (SK-MEL-28 melanoma): > 100 µM | TGI (HOP-92 NSCLC): > 100 µM | TGI (SK-OV-3 ovarian): > 100 µM | TGI (PC-3 prostate): > 100 µM | TGI (HT29 colon): > 100 µM | TGI (CCRF-CEM leukemia): > 100 µM | TGI (BT-549 breast): > 100 µM

COc1ccc(NC(C)=O)cc1N1C(=O)/C(=C\c2cc(OC)c(OC)c(OC)c2)S(=O)(=O)C1c1ccccc1 (stereo unspecified)
TGI (SR leukemia): > 100 µM | TGI (SN12C renal): > 100 µM | TGI (MOLT-4 leukemia): > 100 µM | TGI (SF-295 CNS): > 100 µM | TGI (ACHN renal): > 100 µM | TGI (DU-145 prostate): > 100 µM | TGI (MDA-MB-231 breast): > 100 µM | TGI (UACC-257 melanoma): > 100 µM | TGI (SK-MEL-5 melanoma): > 100 µM | TGI (NCI-H522 lung): > 100 µM | TGI (RXF 393 renal): > 100 µM | TGI (MDA-MB-435): > 100 µM | TGI (TK-10 renal): > 100 µM | TGI (KM12 colon): > 100 µM | TGI (HCT-116 colon): > 100 µM | TGI (CAKI-1 renal): > 100 µM | TGI (LOX IMVI melanoma): > 100 µM | TGI (COLO 205 colon): > 100 µM | TGI (T-47D breast): > 100 µM | TGI (OVCAR-8 ovarian): > 100 µM | TGI (A549 NSCLC): > 100 µM | TGI (SK-MEL-2 melanoma): > 100 µM | TGI (SW-620 colon): > 100 µM | TGI (OVCAR-5 ovarian): > 100 µM | TGI (UACC-62 melanoma): > 100 µM | TGI (A498 renal): > 100 µM | TGI (HOP-62 NSCLC): > 100 µM | TGI (SNB-75 CNS): > 100 µM | TGI (IGROV1 ovarian): > 100 µM | TGI (U251 CNS): > 100 µM | TGI (UO-31 renal): > 100 µM | TGI (NCI/ADR-RES ovarian): > 100 µM | TGI (SF-539 CNS): > 100 µM | TGI (786-0 renal): > 100 µM | TGI (M14 melanoma): > 100 µM | TGI (SNB-19 CNS): > 100 µM | TGI (OVCAR-3 ovarian): > 100 µM | TGI (MALME-3M melanoma): > 100 µM | TGI (HCT-15 colon): > 100 µM | TGI (MDA-N): > 100 µM | TGI (NCI-H460 lung): > 100 µM | TGI (EKVX NSCLC): > 100 µM | TGI (HCC-2998 colon): > 100 µM | TGI (K-562 leukemia): > 100 µM | TGI (NCI-H23 lung): > 100 µM | TGI (RPMI-8226 leukemia): > 100 µM | TGI (HL-60(TB) leukemia): 43 µM | TGI (OVCAR-4 ovarian): > 100 µM | TGI (NCI-H226 lung): > 100 µM | TGI (MCF7 breast): > 100 µM | TGI (SK-MEL-28 melanoma): > 100 µM | TGI (HOP-92 NSCLC): > 100 µM | TGI (SK-OV-3 ovarian): > 100 µM | TGI (PC-3 prostate): > 100 µM | TGI (HT29 colon): > 100 µM | TGI (CCRF-CEM leukemia): > 100 µM | TGI (BT-549 breast): > 100 µM
